{
  "source": "ChEMBL document CHEMBL5113452",
  "about": "“Synthesis and biological evaluation of hybrids from optically active ring-opened 3-N-butylphthalide derivatives and 4-fluro-edaravone as potential anti-acute ischemic stroke agents” (Bioorg Med Chem, 2022)",
  "key": {"[1]": {"experiment": "Prodrug conversion in Sprague-Dawley rat plasma assessed as C0 of metabolite S-NBP at 10 mg/kg, iv and measured upto 24 hrs by LC-MS/MS analysis", "assay_type": "ADME, organism-based", "settings": "in vivo"}, "[2]": {"experiment": "Prodrug conversion in Sprague-Dawley rat plasma assessed as AUMC (0-t) of metabolite S-NBP at 10 mg/kg, iv and measured upto 24 hrs by LC-MS/MS analysis", "assay_type": "ADME, organism-based", "settings": "in vivo"}, "[3]": {"experiment": "Prodrug conversion in Sprague-Dawley rat plasma assessed as AUMC (0-t) of metabolite 4-F-Eda at 10 mg/kg, iv and measured upto 24 hrs by LC-MS/MS analysis", "assay_type": "ADME, organism-based", "settings": "in vivo"}, "[4]": {"experiment": "Prodrug conversion in Sprague-Dawley rat plasma assessed as half life of metabolite 4-F-Eda at 10 mg/kg, iv and measured upto 24 hrs by LC-MS/MS analysis", "assay_type": "ADME, organism-based", "settings": "in vivo"}, "[5]": {"experiment": "Prodrug conversion in Sprague-Dawley rat plasma assessed as Cmax of metabolite 4-F-Eda at 10 mg/kg, iv and measured upto 24 hrs by LC-MS/MS analysis", "assay_type": "ADME, organism-based", "parameters": "time < 24 hrs, dose 10 mg/kg, route iv", "settings": "in vivo"}, "[6]": {"experiment": "Prodrug conversion in Sprague-Dawley rat plasma assessed as volume of distribution at steady state of metabolite S-NBP at 10 mg/kg, iv and measured upto 24 hrs by LC-MS/MS analysis", "assay_type": "ADME, organism-based", "settings": "in vivo"}, "[7]": {"experiment": "Prodrug conversion in Sprague-Dawley rat plasma assessed as AUC (0-infinity) of metabolite S-NBP at 10 mg/kg, iv and measured upto 24 hrs by LC-MS/MS analysis", "assay_type": "ADME, organism-based", "parameters": "dose 10 mg/kg, time < 24 hrs, route iv", "settings": "in vivo"}, "[8]": {"experiment": "Prodrug conversion in Sprague-Dawley rat plasma assessed as MRT of metabolite 4-F-Eda at 10 mg/kg, iv and measured upto 24 hrs by LC-MS/MS analysis", "assay_type": "ADME, organism-based", "settings": "in vivo"}, "[9]": {"experiment": "Prodrug conversion in Sprague-Dawley rat plasma assessed as half life of metabolite S-NBP at 10 mg/kg, iv and measured upto 24 hrs by LC-MS/MS analysis", "assay_type": "ADME, organism-based", "settings": "in vivo"}, "[10]": {"experiment": "Metabolic stability in rat liver microsomes assessed as half life at 20 mM and measured upto 120 mins by HPLC analysis", "assay_type": "ADME, Microsome"}, "[11]": {"experiment": "Prodrug conversion in Sprague-Dawley rat plasma assessed as Cmax of metabolite S-NBP at 10 mg/kg, iv and measured upto 24 hrs by LC-MS/MS analysis", "assay_type": "ADME, organism-based", "parameters": "time < 24 hrs, dose 10 mg/kg, route iv", "settings": "in vivo"}, "[12]": {"experiment": "Prodrug conversion in Sprague-Dawley rat plasma assessed as elimination rate constant of metabolite S-NBP at 10 mg/kg, iv and measured upto 24 hrs by LC-MS/MS analysis", "assay_type": "ADME, organism-based", "settings": "in vivo"}, "[13]": {"experiment": "Prodrug conversion in Sprague-Dawley rat plasma assessed as elimination rate constant of metabolite 4-F-Eda at 10 mg/kg, iv and measured upto 24 hrs by LC-MS/MS analysis", "assay_type": "ADME, organism-based", "settings": "in vivo"}, "[14]": {"experiment": "Prodrug conversion in Sprague-Dawley rat plasma assessed as 4-F-Eda metabolite formation at 10 mg/kg, iv and measured upto 24 hrs by LC-MS/MS analysis", "assay_type": "ADME, organism-based", "settings": "in vivo"}, "[15]": {"experiment": "Metabolic stability in rat plasma assessed as half life at 200 uM and measured upto 24 hrs by HPLC analysis", "assay_type": "ADME, cell-free"}, "[16]": {"experiment": "Prodrug conversion in Sprague-Dawley rat plasma assessed as AUC (0-t) of metabolite 4-F-Eda at 10 mg/kg, iv and measured upto 24 hrs by LC-MS/MS analysis", "assay_type": "ADME, organism-based", "parameters": "dose 10 mg/kg, time < 24 hrs, route iv", "settings": "in vivo"}, "Rattus norvegicus [17]": {"system": "Rattus norvegicus", "experiment": "Neuroprotective activity against transient middle cerebral artery occlusion induced ischemia stroke Sprague-Dawley rat model assessed as increase in neuro-fucntional score at 10 mg/kg, iv and measured after 24 hrs by longa's method", "assay_type": "functional, organism-based"}, "Rattus norvegicus [18]": {"system": "Rattus norvegicus", "experiment": "Neuroprotective activity against transient middle cerebral artery occlusion induced cerebral infraction Sprague-Dawley rat model assessed as decrease in brain edema at 10 mg/kg, iv and measured after 24 hrs", "assay_type": "functional", "parameters": "scale not given: the % may be the effect or the level left"}, "[19]": {"experiment": "Prodrug conversion in Sprague-Dawley rat plasma assessed as C0 of metabolite 4-F-Eda at 10 mg/kg, iv and measured upto 24 hrs by LC-MS/MS analysis", "assay_type": "ADME, organism-based", "settings": "in vivo"}, "[20]": {"experiment": "Prodrug conversion in Sprague-Dawley rat plasma assessed as AUMC (0-infinity) of metabolite 4-F-Eda at 10 mg/kg, iv and measured upto 24 hrs by LC-MS/MS analysis", "assay_type": "ADME, organism-based", "settings": "in vivo"}, "[21]": {"experiment": "Prodrug conversion in Sprague-Dawley rat plasma assessed as AUMC (0-infinity) of metabolite S-NBP at 10 mg/kg, iv and measured upto 24 hrs by LC-MS/MS analysis", "assay_type": "ADME, organism-based", "settings": "in vivo"}, "Rattus norvegicus [22]": {"system": "Rattus norvegicus", "experiment": "Neuroprotective activity against transient middle cerebral artery occlusion induced cerebral infraction Sprague-Dawley rat model assessed as decrease in cerebral infraction volume at 10 mg/kg, iv and measured after 24 hrs by TTC staining based assay", "assay_type": "functional", "parameters": "scale not given: the % may be the effect or the level left"}, "[23]": {"experiment": "Toxicity in transient middle cerebral artery occlusion induced ischemia stroke Sprague-Dawley rat model assessed as change in body weight at 10 mg/kg, iv and measured after 24 hrs", "assay_type": "organism-based", "settings": "in vivo"}, "[24]": {"experiment": "Prodrug conversion in Sprague-Dawley rat plasma assessed as AUC (0-t) of metabolite S-NBP at 10 mg/kg, iv and measured upto 24 hrs by LC-MS/MS analysis", "assay_type": "ADME, organism-based", "parameters": "time < 24 hrs, dose 10 mg/kg, route iv", "settings": "in vivo"}, "[25]": {"experiment": "Prodrug conversion in Sprague-Dawley rat plasma assessed as AUC (0-infinity) of metabolite 4-F-Eda at 10 mg/kg, iv and measured upto 24 hrs by LC-MS/MS analysis", "assay_type": "ADME, organism-based", "parameters": "dose 10 mg/kg, time < 24 hrs, route iv", "settings": "in vivo"}, "[26]": {"experiment": "Prodrug conversion in Sprague-Dawley rat plasma assessed as S-NBP metabolite formation at 10 mg/kg, iv and measured upto 24 hrs by LC-MS/MS analysis", "assay_type": "ADME, organism-based", "settings": "in vivo"}, "[27]": {"experiment": "Prodrug conversion in Sprague-Dawley rat plasma assessed as MRT of metabolite S-NBP at 10 mg/kg, iv and measured upto 24 hrs by LC-MS/MS analysis", "assay_type": "ADME, organism-based", "settings": "in vivo"}, "[28]": {"experiment": "Prodrug conversion in Sprague-Dawley rat plasma assessed as volume of distribution at steady state of metabolite 4-F-Eda at 10 mg/kg, iv and measured upto 24 hrs by LC-MS/MS analysis", "assay_type": "ADME, organism-based", "settings": "in vivo"}},
  "note": "Active and inactive are the calls of the source. The rule behind the calls is not given here.",
  "data": [
    {"smiles": "CCCC[C@H](OC(C)=O)c1ccccc1C(=O)Oc1cc(C)nn1-c1ccc(F)cc1", "values": [
      {"measurement": "C0", "setting": "[1]", "value": 4653, "unit": "ng/mL"},
      {"measurement": "AUMCt", "setting": "[2]", "value": 9914, "unit": "hr.hr.ng/ml"},
      {"measurement": "AUMCt", "setting": "[3]", "value": 4095, "unit": "hr.hr.ng/ml"},
      {"measurement": "t1/2", "setting": "[4]", "value": 5.11, "unit": "h"},
      {"measurement": "Cmax", "setting": "[5]", "value": 5569, "unit": "ng/mL"},
      {"measurement": "Vdss", "setting": "[6]", "value": 16.1, "unit": "L/kg"},
      {"measurement": "AUC", "setting": "[7]", "value": 2819, "unit": "ng·h/mL"},
      {"measurement": "MRT", "setting": "[8]", "value": 1.77, "unit": "h"},
      {"measurement": "t1/2", "setting": "[9]", "value": 5.69, "unit": "h"},
      {"measurement": "half-life", "setting": "[10]", "value": 0.833, "unit": "h"},
      {"measurement": "Cmax", "setting": "[11]", "value": 3242, "unit": "ng/mL"},
      {"measurement": "Kel", "setting": "[12]", "value": 0.123, "unit": "h⁻¹"},
      {"measurement": "Kel", "setting": "[13]", "value": 0.143, "unit": "h⁻¹"},
      {"measurement": "Drug metabolism", "setting": "[14]", "value": "Metabolite_Detected"},
      {"measurement": "half-life at 200 µM", "setting": "[15]", "value": 17, "unit": "h"},
      {"measurement": "AUCt", "setting": "[16]", "value": 2958, "unit": "ng·h/mL"},
      {"measurement": "Activity", "setting": "Rattus norvegicus [17]", "value": "Active"},
      {"measurement": "Activity", "setting": "Rattus norvegicus [18]", "value": 13.96, "unit": "%"},
      {"measurement": "C0", "setting": "[19]", "value": 8328, "unit": "ng/mL"},
      {"measurement": "AUMC", "setting": "[20]", "value": 5109, "unit": "hr.hr.ng/ml"},
      {"measurement": "AUMC", "setting": "[21]", "value": 12474, "unit": "hr.hr.ng/ml"},
      {"measurement": "Activity", "setting": "Rattus norvegicus [22]", "value": 77.85, "unit": "%"},
      {"measurement": "Activity", "setting": "[23]", "value": "Non-Toxic"},
      {"measurement": "AUCt", "setting": "[24]", "value": 2740, "unit": "ng·h/mL"},
      {"measurement": "AUC", "setting": "[25]", "value": 2990, "unit": "ng·h/mL"},
      {"measurement": "Drug metabolism", "setting": "[26]", "value": "Metabolite_Detected"},
      {"measurement": "MRT", "setting": "[27]", "value": 4.45, "unit": "h"},
      {"measurement": "Vdss", "setting": "[28]", "value": 6.18, "unit": "L/kg"}
    ]}
  ]
}
